Test results published in publication PMC4207771, “Identification and Characterization of Novel Renal Sensory Receptors” (PLoS ONE, 2014).
Entries after “also recorded” stand apart in the source; their conditions may differ. Where two headings read alike, the source gives them in different places.

Key:
Olfr691 [1] = target: T1, Olfr691 (Mus musculus, UniProt Q8VGW5); assay: dual-luciferase (cAMP/CREB reporter) ligand screen, Olfr691 in HEK293T cells; assay type: cell-based; details: for Olfr691 response in dual-luciferase assay: chemicals tested individually, screened at 500uM (* also at 100uM); for Olfr691 response (in words): luciferase assay, co-expressed with RTP1S; for Relative response (% of 4-pentenoate response) at 500 µM: HEK-293T, 4 h; for EC50: Olfr691 co-expressed with RTP1S in HEK293T cells, 10 µM to 7.5 mM
T1 construct: Lucy (N); expressed in transfected cells; host or cells: HEK293T, co-transfected with RTP1S
T1 sequence (Q8VGW5 1-322): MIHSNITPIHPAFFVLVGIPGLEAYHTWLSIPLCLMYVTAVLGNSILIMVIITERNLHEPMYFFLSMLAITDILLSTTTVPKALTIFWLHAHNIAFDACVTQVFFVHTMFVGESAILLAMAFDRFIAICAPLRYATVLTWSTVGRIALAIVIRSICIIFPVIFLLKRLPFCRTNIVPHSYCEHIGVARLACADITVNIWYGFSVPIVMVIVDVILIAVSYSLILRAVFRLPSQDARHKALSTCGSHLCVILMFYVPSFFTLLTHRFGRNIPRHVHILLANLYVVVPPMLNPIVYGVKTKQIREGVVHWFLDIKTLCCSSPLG

Olfr545 = assay: dual-luciferase (cAMP/CREB reporter) ligand screen, Olfr545 in HEK293T cells; assay type: cell-based, mouse; design: key to Olfr545 response in dual-luciferase assay: ‘+’ or ‘–‘ in each column indicates if the olfactory receptor responded or had no effect to that specific chemical; -: ‘+’ or ‘–‘ in each column indicates if the olfactory receptor responded or had no effect to that specific chemical; details: for Olfr545 response in dual-luciferase assay: chemicals tested individually, screened at 500uM (* also at 100uM)
Olfr99 = assay: dual-luciferase (cAMP/CREB reporter) ligand screen, Olfr99 in HEK293T cells; assay type: cell-based, mouse; design: key: ‘+’ or ‘–‘ in each column indicates if the olfactory receptor responded or had no effect to that specific chemical; -: ‘+’ or ‘–‘ in each column indicates if the olfactory receptor responded or had no effect to that specific chemical; details: chemicals tested individually, screened at 500uM (* also at 100uM)
Olfr31 = target: T2, Olfr31 (Mus musculus, UniProt Q3KPA7); assay: dual-luciferase (cAMP/CREB reporter) ligand screen, Olfr31 in HEK293T cells; assay type: cell-based; details: chemicals tested individually, screened at 500uM (* also at 100uM)
T2 construct: expressed in transfected cells; host or cells: HEK293T, co-transfected with RTP1S
T2 sequence (Q3KPA7 1-317): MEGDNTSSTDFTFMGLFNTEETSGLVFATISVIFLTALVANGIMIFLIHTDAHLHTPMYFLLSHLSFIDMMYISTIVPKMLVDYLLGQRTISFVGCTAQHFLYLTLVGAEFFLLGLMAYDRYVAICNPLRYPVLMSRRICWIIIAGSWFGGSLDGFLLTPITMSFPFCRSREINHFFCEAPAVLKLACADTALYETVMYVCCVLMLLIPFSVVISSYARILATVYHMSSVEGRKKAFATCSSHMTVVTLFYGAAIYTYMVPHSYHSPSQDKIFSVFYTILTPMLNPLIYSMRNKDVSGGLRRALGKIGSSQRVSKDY

Olfr693 = assay: dual-luciferase (cAMP/CREB reporter) ligand screen, Olfr693 in HEK293T cells; assay type: cell-based, mouse; design: key: ‘+’ or ‘–‘ in each column indicates if the olfactory receptor responded or had no effect to that specific chemical; -: ‘+’ or ‘–‘ in each column indicates if the olfactory receptor responded or had no effect to that specific chemical; details: chemicals tested individually, screened at 500uM (* also at 100uM)
Olfr691 [2] = target: T1, Olfr691; design: method as in PMID 15550249; details: cited from earlier work
[3] = design: method as in PMID 20304335, PMID 15230715; details: patients treated with valproate as an antiepileptic drug; cited from earlier work
[4] = 0.5 mM ligand, normalized to the response of Olfr691 to the strongest ligand, 4-pentenoate

| Molecule | Olfr691 response in dual-luciferase assay (Olfr691 [1]) | Olfr691 response (in words) (Olfr691 [1]; listed as pentanal) | Relative response at 0.5mM (Olfr691 [1]; [4]) | Olfr691 response (in words) (Olfr691 [1]) | Relative response (% of 4-pentenoate response) at 500 µM (Olfr691 [1]; [4]) [%] | EC50 (Olfr691 [1]) [µM] | Olfr545 response in dual-luciferase assay (Olfr545) | Olfr99 response in dual-luciferase assay (Olfr99) | Olfr31 response in dual-luciferase assay (Olfr31) | Olfr693 response in dual-luciferase assay (Olfr693) | previously reported ligand of Olfr691 (Olfr691 [2]; listed as pentanal) | Olfr545 response (in words) (Olfr545; luciferase assay) | previously reported ligand of Olfr691 (Olfr691 [2]) | renal adverse effect in patients [3] |
| --- | --- | --- | --- | --- | --- | --- | --- | --- | --- | --- | --- | --- | --- | --- |
| O=C1CCCCCCCCCCCCCCO1 [omega-pentadecalactone] | - |  |  |  |  |  | - | - | - | - |  |  |  |  |
| CC(C)C(=O)OCCc1ccccc1 [phenyl ethyl isobutyrate] | - |  |  |  |  |  | - | - | - | - |  |  |  |  |
| O=C(O)CCCCCCCCC(=O)O [sebacic acid] | - |  |  |  |  |  | - | - | - | - |  | did not induce a response |  |  |
| CCCCC(=O)O [valerate] | + |  |  | dose dependent manner; also recorded: able to confirm | 98 ± 5.7 | 852 | - | - | - | - |  |  | previously reported |  |
| Myrtenal | - |  |  |  |  |  | - | - | - | - |  |  |  |  |

The next lines start with results.

| Olfr691 response in dual-luciferase assay (Olfr691 [1]) | Olfr691 response (in words) (Olfr691 [1]; listed as pentanal) | Relative response at 0.5mM (Olfr691 [1]; [4]) | Olfr691 response (in words) (Olfr691 [1]) | Relative response (% of 4-pentenoate response) at 500 µM (Olfr691 [1]; [4]) [%] | EC50 (Olfr691 [1]) [µM] | Molecule | Olfr545 response in dual-luciferase assay (Olfr545) | Olfr99 response in dual-luciferase assay (Olfr99) | Olfr31 response in dual-luciferase assay (Olfr31) | Olfr693 response in dual-luciferase assay (Olfr693) | previously reported ligand of Olfr691 (Olfr691 [2]; listed as pentanal) | Olfr545 response (in words) (Olfr545; luciferase assay) | previously reported ligand of Olfr691 (Olfr691 [2]) | renal adverse effect in patients [3] |
| --- | --- | --- | --- | --- | --- | --- | --- | --- | --- | --- | --- | --- | --- | --- |
| - | did not induce a response |  |  |  |  | CCCCC=O [n-valeraldehyde] | - | - | - | - | previously reported |  |  |  |
| + |  | 42 ± 3.1 | responds |  |  | CCC(=O)O [propionate] | - | - | - | - |  |  |  |  |
| - |  |  |  |  |  | CCCCC/C=C/CO [trans-2-octen-1-ol] | - | - | - | - |  |  |  |  |
| + |  |  | highest affinity | 98 ± 5 | 478 | CCCC(CCC)C(=O)O [valproate, reference compound] | - | - |  | - |  |  |  | develop Fanconi syndrome |
